Values quoted from earlier work as cited in patent US20250248977A1, “Tablet Formulation Of Tafamidis Or Pharmaceutically Acceptable Salt Thereof” (Navinta LLC, priority 2024, published 2025).

aqueous solubility: low
SMILES: O=C(O)c1ccc2nc(-c3cc(Cl)cc(Cl)c3)oc2c1 [Tafamidis, 2-(3,5-dichlorophenyl)-1,3-benzoxazole-6-carboxylic acid]
